Legend:
Assay in all cases: maximum observed lethal fraction; higher = more cell death
[1] = test system: U2OS PTBP1-KO
[2] = test system: U2OS
[3] = test system: U2OS BAX/BAK1 DKO
[4] = test system: U2OS BCL2L12-KO
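Note: FLICK assay: SYTOX Green fluorescence of dead cells tracked over time after drugging in 96-well plates, with total cell counts taken from Triton X-100 lysed wells.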

CC1(C)CCC(CN2CCN(c3ccc(C(=O)NS(=O)(=O)c4ccc(NCC5CCOCC5)c([N+](=O)[O-])c4)c(Oc4cnc5[nH]ccc5c4)c3)CC2)=C(c2ccc(Cl)cc2)C1 [ABT-199]
maximum observed lethal fraction
Conditions | 0.1 µM | 0.316 µM | 1 µM | 3.16 µM | 10 µM | 31.6 µM | 100 µM
[1] | 0.0644 | 0.0635 | 0.0617 | 0.0671 | 0.0741 | 0.211 | 0.517
[2] | 0.0502 | 0.0518 | 0.0546 | 0.0609 | 0.0939 | 0.239 | 0.52
[3] | 0.0501 | 0.0536 | 0.0531 | 0.0558 | 0.0561 | 0.0846 | 0.0728
[4] | 0.0643 | 0.0609 | 0.063 | 0.0712 | 0.114 | 0.39 | 0.692

CC1(C)CCC(c2ccc(Cl)cc2)=C(CN2CCN(c3ccc(C(=O)NS(=O)(=O)c4ccc(N[C@H](CCN5CCOCC5)CSc5ccccc5)c(S(=O)(=O)C(F)(F)F)c4)cc3)CC2)C1 [ABT-263]
maximum observed lethal fraction
Conditions | 0.1 µM | 0.316 µM | 1 µM | 3.16 µM | 10 µM | 31.6 µM | 100 µM
[1] | 0.0713 | 0.0786 | 0.0982 | 0.131 | 0.192 | 0.771 | 1
[2] | 0.0623 | 0.0847 | 0.106 | 0.2 | 0.247 | 0.683 | 0.984
[3] | 0.0556 | 0.0535 | 0.0545 | 0.0548 | 0.0634 | 0.172 | 0.43
[4] | 0.0718 | 0.0885 | 0.121 | 0.225 | 0.26 | 0.821 | 1

CN(C)CC[C@H](CSc1ccccc1)Nc1ccc(S(=O)(=O)NC(=O)c2ccc(N3CCN(Cc4ccccc4-c4ccc(Cl)cc4)CC3)cc2)cc1[N+](=O)[O-] [ABT-737]
maximum observed lethal fraction
Conditions | 0.0316 µM | 0.1 µM | 0.316 µM | 1 µM | 3.16 µM | 10 µM | 31.6 µM
[1] | 0.0704 | 0.0736 | 0.0737 | 0.0836 | 0.13 | 0.38 | 0.617
[2] | 0.0571 | 0.0649 | 0.0818 | 0.115 | 0.189 | 0.462 | 0.788
[3] | 0.0579 | 0.0557 | 0.0559 | 0.0569 | 0.0568 | 0.0722 | 0.082
[4] | 0.0733 | 0.076 | 0.0912 | 0.127 | 0.28 | 0.596 | 0.84

CCN1CCN(Cc2ccc(Nc3ncc(F)c(-c4cc(F)c5nc(C)n(C(C)C)c5c4)n3)nc2)CC1 [Abemaciclib]
maximum observed lethal fraction
Conditions | 0.01 µM | 0.0316 µM | 0.1 µM | 0.316 µM | 1 µM | 3.16 µM | 10 µM
[1] | 0.0734 | 0.0787 | 0.081 | 0.0922 | 0.161 | 0.257 | 0.739
[2] | 0.0681 | 0.0675 | 0.0675 | 0.0855 | 0.376 | 0.314 | 0.851
[3] | 0.0682 | 0.0681 | 0.0721 | 0.0802 | 0.0972 | 0.0964 | 0.339
[4] | 0.0701 | 0.071 | 0.073 | 0.0769 | 0.211 | 0.457 | 0.889

Cc1c2oc3c(C)ccc(C(=O)N[C@@H]4C(=O)N[C@H](C(C)C)C(=O)N5CCC[C@H]5C(=O)N(C)CC(=O)N(C)[C@@H](C(C)C)C(=O)O[C@@H]4C)c3nc-2c(C(=O)N[C@@H]2C(=O)N[C@H](C(C)C)C(=O)N3CCC[C@H]3C(=O)N(C)CC(=O)N(C)[C@@H](C(C)C)C(=O)O[C@@H]2C)c(N)c1=O [Actinomycin-D]
maximum observed lethal fraction
Conditions | 0.001 µM | 0.00316 µM | 0.01 µM | 0.0316 µM | 0.1 µM | 0.316 µM | 1 µM
[1] | 0.0967 | 0.164 | 0.311 | 0.206 | 0.243 | 0.368 | 0.328
[2] | 0.0789 | 0.0968 | 0.505 | 0.545 | 0.4 | 0.637 | 0.578
[3] | 0.0757 | 0.0754 | 0.0792 | 0.088 | 0.0799 | 0.0933 | 0.0822
[4] | 0.101 | 0.199 | 0.648 | 0.35 | 0.254 | 0.406 | 0.377

COc1ccc(C[C@H]2NC[C@H](O)[C@H]2OC(C)=O)cc1 [Anisomycin]
maximum observed lethal fraction
Conditions | 0.316 µM | 1 µM | 3.16 µM | 10 µM | 31.6 µM | 100 µM | 316 µM
[1] | 0.174 | 0.177 | 0.239 | 0.337 | 0.426 | 0.403 | 0.408
[2] | 0.277 | 0.456 | 0.711 | 0.845 | 0.888 | 0.879 | 0.903
[3] | 0.114 | 0.119 | 0.103 | 0.111 | 0.121 | 0.109 | 0.107
[4] | 0.218 | 0.159 | 0.181 | 0.32 | 0.353 | 0.387 | 0.444

CC(C)C[C@H](NC(=O)[C@H](Cc1ccccc1)NC(=O)c1cnccn1)B(O)O [Bortezomib]
maximum observed lethal fraction
Conditions | 0.001 µM | 0.00316 µM | 0.01 µM | 0.0316 µM | 0.1 µM | 0.316 µM | 1 µM
[1] | 0.0725 | 0.108 | 0.418 | 0.637 | 0.731 | 0.791 | 0.82
[2] | 0.0526 | 0.193 | 0.757 | 0.865 | 0.9 | 0.904 | 0.917
[3] | 0.059 | 0.0694 | 0.096 | 0.27 | 0.378 | 0.387 | 0.443
[4] | 0.0699 | 0.0922 | 0.345 | 0.8 | 0.791 | 0.889 | 0.904

— the supplement of paper PMC12406974
